Test results from patent publication US4450165A, “Dihydropyridine compounds” (Yoshitomi Pharmaceutical Industries, Ltd., priority 1981, dated 1984).

What was measured:
[1] = tested on: coronary blood flow (left coronary artery); test: Effect on coronary blood flow; assay type: in vivo, mongrel dogs; details: anesthetized dogs; for ED50 (effective dose in blood flow): injected into afferent cannula, increase in blood flow by nifedipine 10 μg taken as 100%; for Duration (time for which the half maximum response remained): coronary blood flow
Experimental: The perfused flow was measured by means of an electromagnitic flow-meter. The test compound was dissolved in an aqueous solution containing 15% ethanol and 15% polyethylene glycol, and injected into the afferent cannula. […] The duration was measured as the time for which the half maximum response remained.

[2] = tested on: spontaneously hypertensive rats; test: Hypotensive activity (systolic blood pressure, indirect tail cuff method); assay type: in vivo; details: Rattus norvegicus; oral; before and at 1, 3, 5 and 7 hours; five male spontaneously hypertensive rats; from dose response curve; read-out: ED30 (effective dose which showed the maximum hypotension by 30 mmHg)
Experimental: Five male spontaneously hypertensive rats were used for each experiment. Systolic blood pressure was determined using an indirect tail cuff method before and at 1, 3, 5 and 7 hours following the oral administration of the test compound.

[3] = tested on: vertebral blood flow (right vertebral artery); test: Effect on vertebral blood flow; assay type: in vivo, mongrel dogs; details: anesthetized dogs; for ED100 (effective dose in blood flow): injected into afferent tube, increase in blood flow by papaverine 100 μg taken as 100%; for Duration (time for which the half maximum response remained): vertebral blood flow
Experimental: Under the artificial ventilation, the right vertebral artery was perfused with the arterial blood from the left carotid artery through a short bypass. The perfused flow was measured by means of an electromagnetic flow-meter. The test compound was dissolved in an aqueous solution containing 0.1% dimethyl sulfoxide and 0.01% polyoxyethylene hydrogenated castor oil (cremophor EL®), and injected into the afferent tube. […] The duration was measured as the time for which the half maximum response remained.

COC(=O)C1=C(C)NC(C)=C(C(=O)OC)C1c1ccccc1[N+](=O)[O-] [Nifedipine]
ED50 (effective dose in blood flow) [1]: 0.5 µg

COC(=O)C1=C(C)NC(C)=C(C(=O)OC(CN(C)Cc2ccccc2)c2cccs2)C1c1cccc([N+](=O)[O-])c1.Cl (stereo not drawn) [Test Compound B, 2,6-Dimethyl-4-(m-nitrophenyl)-1,4-dihydropyridine-3,5-dicarboxylic acid-3-methylester-5-[2-(N-benzyl-N-methylamino)-1-(2-thienyl)ethyl]ester hydrochloride]
ED (30 mmHg) [2]: 1 mg/kg
ED100 (effective dose in blood flow) [3]: 1.8 µg
Duration (time for which the half maximum response remained) [3]: 22.5 min

COC(=O)C1=C(C)NC(C)=C(C(=O)OC(CN(C)Cc2ccccc2)c2ccco2)C1c1cccc([N+](=O)[O-])c1.Cl (stereo not drawn) [Test Compound A, 2,6-Dimethyl-4-(m-nitrophenyl)-1,4-dihydropyridine-3,5-dicarboxylic acid-3-methylester-5-[2-(N-benzyl-N-methylamino)-1-(2-furyl)ethyl]ester hydrochloride]
ED (30 mmHg) [2]: 1.3 mg/kg
ED100 (effective dose in blood flow) [3]: 1.0 µg
Duration (time for which the half maximum response remained) [3]: 11.0 min
ED50 (effective dose in blood flow) [1]: 1.5 µg
Duration (time for which the half maximum response remained) [1]: 15.0 min

COC(=O)C1=C(C)NC(C)=C(C(=O)OCCN(C)Cc2ccccc2)C1c1cccc([N+](=O)[O-])c1.Cl (stereo not drawn) [Nicardipine, 2,6-Dimethyl-4-(m-nitrophenyl)-1,4-dihydropyridine-3,5-dicarboxylic acid-3-methylester-5-[2-(N-benzyl-N-methylamino)ethyl]ester hydrochloride, reference compound]
ED (30 mmHg) [2]: 5 mg/kg
ED100 (effective dose in blood flow) [3]: 0.4 µg
Duration (time for which the half maximum response remained) [3]: 1.0 min
ED50 (effective dose in blood flow) [1]: 0.5 µg
Duration (time for which the half maximum response remained) [1]: 3.0 min

COc1ccc(Cc2nccc3cc(OC)c(OC)cc23)cc1OC [Papaverine, reference compound]
ED100 (effective dose in blood flow) [3]: 100 µg
